Earlier results on 1 compound are cited in US20080175908A1, “TABLET-IN-TABLET COMPOSITIONS” (Wyeth, priority 2007, published 2008).

Molecules are shown by their SMILES.

The test system of series [1] is uterine response. The conditions noted are these: preclinical models of uterine stimulation.
Series [2] concerns ovariectomized rat model of osteopenia.
Series [3] relates to MCF-7 cell line (human breast cancer cell line).

In the case of `Cc1c(-c2ccc(O)cc2)n(Cc2ccc(OCCN3CCCCCC3)cc2)c2ccc(O)cc12` [bazedoxifene acetate, 1-[4-(2-azepan-1-yl-ethoxy)-benzyl]-2-(4-hydroxy-phenyl)-3-methyl-1H-indol-5-ol acetic acid], in series [1], the “stimulation of uterine response” value is “little or no stimulation of uterine response”. Further, in series [2], the “prevention of bone loss” value is “estrogen agonist-like effect in preventing bone loss” and the reduction of cholesterol result was “reducing cholesterol”. The estrogen antagonist behaviour result in series [3] is on record as “behaves as an estrogen antagonist”.
